Measured values from patent US7514417B2 (CV Therapeutics, Inc., priority 2005, dated 2009).

Tests used:
A1 adenosine receptor = biological target: T1, A1 adenosine receptor (Mesocricetus auratus, UniProt A0A1U8BVR4); assay: Competitive radioligand binding assay, A1 binding affinity, DDT1 cell membranes; design: species or system hamster; conditions: membranes of DDT cells, tritiated radioligand (3H-CPA) 1.5 nM, 23° C. 90 minutes
T1 construct: A1 adenosine receptor sites on the membranes of DDT cells; endogenous in cells; host or cells: DDT cells (DDT1, hamster vas deferens smooth muscle cell line), membrane preparation
T1 sequence (A0A1U8BVR4 1-326): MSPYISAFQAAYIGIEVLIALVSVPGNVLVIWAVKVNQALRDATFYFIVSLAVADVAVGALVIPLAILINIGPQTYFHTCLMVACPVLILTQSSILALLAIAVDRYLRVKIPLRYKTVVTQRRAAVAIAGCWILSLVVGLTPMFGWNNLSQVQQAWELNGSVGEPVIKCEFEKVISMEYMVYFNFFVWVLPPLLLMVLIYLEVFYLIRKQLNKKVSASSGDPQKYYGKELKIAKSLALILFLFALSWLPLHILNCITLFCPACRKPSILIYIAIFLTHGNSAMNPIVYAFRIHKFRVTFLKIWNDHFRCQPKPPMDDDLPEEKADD
Protocol: DDT cells (hamster vas deferens smooth muscle cell line) were grown as monolayers in petri dishes using Dulbecco's Modified Eagle's Medium (DMEM) containing 2.5 μg mL^−1 amphotericin B, 100 U mL^−1 penicillin G, 0.1 mg mL^−1 streptomycin sulfate and 5% fetal bovine serum in a humidified atmosphere of 95% air and 5% CO2. Cells were subcultured twice weekly by dispersion in Hank's Balanced Salt Solution (HBSS) without the divalent cations and containing 1 mM EDTA. The cells were then seeded in growth medium at a density of 1.2×10^5 cells per plate and experiments were performed 4 days later at approximately one day preconfluence.
Attached cells were washed twice with HBSS (2×10 mL), scraped free of the plate with the aid of a rubber policeman in 5 mL of 50 mM Tris-HCl buffer pH 7.4 at 4° C. and the suspension was homogenized for 10 s. The suspension was then centrifuged at 27,000×g for 10 min. The pellet was resuspended in homogenization buffer by vortexing and centrifuged again as described above. The final pellet was resuspended in 1 vol of 50 mM Tris-HCl buffer pH 7.4 containing 5 mM MgCl2 for A1 adenosine receptor assays. For the [^35S]GTPγS binding assay the final pellet was resuspended in 50 mM Tris-HCl pH 7.4 containing 5 mM MgCl2, 100 mM NaCl and 1 mM dithiothreitol. This membrane suspension was then placed in liquid nitrogen for 10 min and stored at −80° C. Aliquots of the membrane suspension were later thawed and used for assays. The protein content was determined with a Bradford™ Assay Kit using bovine serum albumin as standard.
Briefly, 50-70 ug of membrane protein were incubated in a mixture containing 2U/ml adenosine deaminase and 10 μM GTP-γS in 50 mM Tris-HCl buffer, pH 7.4, with 1 mM EDTA in glass tubes. Stock solutions of the compounds of the invention were serially diluted (10^−10M to 10^−4M) in Tris buffer and added to the incubation mixture. […] After incubation at 23° C. 90 minutes, the reaction was stopped by filtration on a Brandel MR24 cell harvester and washing with ice-cold Tris-EDTA buffer (three times, approximate volume 10 ml/wash) over Whatman GF/B filters (presoaked for 1 h in 0.3% polyethylenimine to reduce non-specific binding). Filters were transferred to scintillation vials and 5 ml of Scintisafe (VWR, Brisbane, Calif.) was added. The amount of radioactivity retained on the filters was determined by liquid scintillation spectrometry.

[1] = cited from earlier work

| Compound | Ki (A1 adenosine receptor) [nM] | half-life [1] |
| --- | --- | --- |
| O=C(O)c1cnn(-c2nc(NC3CC4CCC3C4)c3ncn(C4O[C@H](CO)[C@@H](O)[C@H]4O)c3n2)c1 (stereo partly drawn) [XXXIV, 1-{9-[(4S,3R,5R)-3,4-dihydroxy-5-(hydroxymethyl)oxolan-2-yl]-6-(bicyclo[2.2.1]hept-2-ylamino)purin-2-yl}pyrazole-4-carboxylic acid] | 1 | – |
| CNC(=O)c1cnn(-c2nc(NC3CCCC3)c3ncn([C@@H]4O[C@H](CO)[C@@H](O)[C@H]4O)c3n2)c1 [XXXV, (1-{9-[(4S,3R,5R)-3,4-dihydroxy-5-(hydroxymethyl)oxolan-2-yl]-6-(cyclopentylamino)purin-2-yl}pyrazol-4-yl)-N-methylcarboxamide] | 1 | – |
| Nc1ncnc2c1ncn2[C@@H]1O[C@H](CO)[C@@H](O)[C@H]1O [adenosine] | – | less than 10 sec |
| (4S,3R,5R)-2-[2-(4-butyl-3,5-dimethylpyrazolyl)-6-(cyclopentylamino)purin-9-yl]-5-(hydroxymethyl)oxolane-3,4-diol [XXVIII] | 188 | – |
| (4S,3R,5R)-2-[6-(bicyclo[2.2.1]hept-2-ylamino)-2-pyrazolylpurin-9-yl]-5-(hydroxymethyl)oxolane-3,4-diol [XXXVI] | 0.4 | – |
